Data as given in PubChem BioAssay (NCI).
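Compound exposure: 48 hours, 5 concentrations, 96-well plates. The concentration for 50% growth inhibition is given as GI50. TGI is the concentration that stops growth completely.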

What was measured:
Assay in all cases: inhibition of tumour cell growth, NCI panel, 48 h
CAKI-1 renal = test system: CAKI-1 renal
COLO 205 colon = test system: COLO 205 colon
HCC-2998 colon = test system: HCC-2998 colon
HS 578T breast = test system: HS 578T breast
KM12 colon = test system: KM12 colon
NCI-H522 lung = test system: NCI-H522 lung
OVCAR-5 ovarian = test system: OVCAR-5 ovarian
SK-MEL-28 melanoma = test system: SK-MEL-28 melanoma
SK-MEL-5 melanoma = test system: SK-MEL-5 melanoma
SNB-75 CNS = test system: SNB-75 CNS

Row | SMILES | GI50 (CAKI-1 renal) [µM] | TGI (CAKI-1 renal) [µM] | GI50 (COLO 205 colon) [µM] | TGI (COLO 205 colon) [µM] | GI50 (HCC-2998 colon) [µM] | TGI (HCC-2998 colon) [µM] | GI50 (HS 578T breast) [µM] | TGI (HS 578T breast) [µM] | GI50 (KM12 colon) [µM] | TGI (KM12 colon) [µM] | GI50 (NCI-H522 lung) [µM] | TGI (NCI-H522 lung) [µM] | GI50 (OVCAR-5 ovarian) [µM] | TGI (OVCAR-5 ovarian) [µM] | GI50 (SK-MEL-28 melanoma) [µM] | TGI (SK-MEL-28 melanoma) [µM] | GI50 (SK-MEL-5 melanoma) [µM] | TGI (SK-MEL-5 melanoma) [µM] | GI50 (SNB-75 CNS) [µM] | TGI (SNB-75 CNS) [µM]
1 | CC[n+]1ccc2c(c1)C(=O)c1nccc3c1c-2nc1ccccc13 | 2.1 | > 33.3 | 1.13 | 5.22 | 1.05 | 4.97 | 0.955 | > 10.1 | 2.41 | 15.2 | 0.538 | 1.45 | 6.88 | 19.4 | 1.84 | 7.64 | 1.35 | 5.54 | 0.678 | 2.56
2 | O=[n+]1c(CBr)c(CBr)n([O-])c2ccccc21 | 12 | 24.5 | 2.04 | 3.99 | 16.9 | 31 | 17 | 45.3 | 17.1 | 31.5 | 1.74 | 3.17 | 14 | 27.1 | 14.6 | 28.1 | 15.9 | 29.5 | 10.6 | 47.6
3 | CN1CCN(Cc2ccc(NC(=O)c3cncc(C#Cc4cnc(N)c5ccccc45)c3)cc2C(F)(F)F)CC1 | 0.271 | 0.7 | 0.405 | 0.948 | 0.42 | 0.878 | 0.371 | 1.18 | 0.0148 | 0.43 | 0.367 | 0.967 | 0.457 | 1.11 | 0.513 | 0.988 | 0.537 | 0.994 | 0.443 | 0.877
4 | N#Cc1c(O)c2c(c(O)c1C#N)C(=O)c1ccccc1C2=O | 2.65 | 8.3 | 1.78 | 4.13 | 2.51 | 8.59 | 1.26 | 5.87 | 2.59 | 12.1 | 2 | 5.92 | 3.35 | 8.74 | 1.06 | 3.58 | 0.282 | 1.14 | 1.37 | 3.94
5 | Cc1c(Cl)cccc1Nc1ncccc1C(=O)O | 59 | > 100 | 93.7 | > 100 | 63.3 | > 100 | 63.1 | > 100 | > 100 | > 100 | 81.2 | > 100 | > 100 | > 100 | > 100 | > 100 | 52.7 | > 100 | > 100 | > 100
6 | COc1ccc(-n2cc(-c3ccc(OC)c(OC)c3)[nH]c2=S)cc1Cl | > 100 | > 100 | > 100 | > 100 | > 100 | > 100 | 38.9 | > 100 | > 100 | > 100 | > 100 | > 100 | > 100 | > 100 | > 100 | > 100 | > 100 | > 100 | 4.75 | 21
7 | COc1nc2c(cc1S(=O)(=O)c1ccccc1)CCc1c-2cnn1-c1ccccc1Cl | 5.2 | > 100 | 9.07 | > 100 | > 100 | > 100 | 4.7 | > 100 | 4.49 | > 100 | 3.02 | > 100 | > 100 | > 100 | > 100 | > 100 | 3.31 | > 100 | 5.19 | > 100
8 | COc1cc2c(c(O)c1C)C(=O)C(Cl)=CC2=O | – | 11.6 | – | 4.96 | – | 44.8 | – | 97.4 | – | 42.1 | – | 5.24 | – | 44.3 | – | 35.1 | – | 21.7 | – | 31.5
9 | CC1=C2[C@@H](CC1)[C@]1(C)O[C@@](C(C)C)(C[C@H]1OC(=O)[C@H](C)O)[C@H]2OC(=O)/C=C/c1ccccc1 | 6.12 | 26 | 16.9 | 36.2 | 13.4 | 28.2 | 0.0529 | 0.378 | 14.8 | 33 | 13.3 | 29.1 | 17.7 | 36.2 | 16.5 | 34.3 | 13.6 | 26.7 | 19.2 | 51.2
10 | O=C(Cc1ccc(/C=C/C(=O)c2ncc[nH]2)cc1)Nc1ccc(Cl)cc1 | 4.88 | 15.4 | 3.01 | 7.42 | 3.73 | 7.48 | 18.8 | > 25 | 1.3 | 5.23 | 2.6 | 7.23 | 3.3 | 7.78 | 4.81 | 11.7 | 6.16 | 17.4 | 3.63 | > 25
11 | CN(C)CCNc1nc2ccccc2c2[nH]c3ccccc3c12 | 0.344 | 1.76 | 0.316 | 1.09 | 0.483 | 2.38 | 4.01 | 13.6 | 0.328 | 2.92 | 1.33 | – | 1.56 | 21.9 | 1.98 | 6.44 | 1.61 | 3.94 | 1.22 | 3.2
12 | CC1(C)N=C(N)N=C(N)N1c1ccc(CCCCc2ccc(S(=O)(=O)F)cc2Cl)c(Cl)c1 | – | 128 | – | 78 | – | 67.1 | – | > 500 | – | 9.77 | – | 31.4 | – | 198 | – | 13.4 | – | 31.7 | – | 54.7
13 | O=C(O)/C=C/C(=O)Nc1ncn[nH]1 | – | > 100 | – | > 100 | – | > 100 | – | > 100 | – | > 100 | – | > 100 | – | > 100 | – | > 100 | – | > 100 | – | > 100
14 | O=C1CCC(NC(=O)c2ccccc2)C(=O)N1 (centres undefined) | – | > 100 | – | > 100 | – | > 100 | – | > 100 | – | > 100 | – | > 100 | – | > 100 | – | > 100 | – | > 100 | – | > 100
15 | COc1ccc(CN2CCCC(C(=O)c3ccc(C(F)(F)F)cc3)C2)c(O)c1 (centres undefined) | 22.1 | > 100 | 19.3 | 36.7 | 24 | 56.3 | 24.7 | > 100 | 30.5 | 86 | 19.3 | 42.2 | 20.2 | 66.1 | 17.1 | 43.9 | 15.9 | 29.8 | 18.4 | > 100
16 | CN(C)S(=O)(=O)Nc1ccccn1 | – | > 100 | – | > 100 | – | > 100 | – | > 100 | – | > 100 | – | > 100 | – | > 100 | – | > 100 | – | > 100 | – | > 100
17 | N#Cc1cnn2ccn(C3OC(COC(=O)c4ccccc4)C(OC(=O)c4ccccc4)C3OC(=O)c3ccccc3)c12 (centres undefined) | – | 21.5 | – | > 21.5 | – | > 21.5 | – | 21.5 | – | 21.5 | – | > 21.5 | – | > 21.5 | – | > 21.5 | – | > 21.5 | – | 21.5
18 | COc1cc2c(c(OC)c1OC)-c1ccc(NCc3ccccc3)c(=O)cc1[C@@H](NC(C)=O)CC2 | 3.23 | 45.8 | 0.277 | 0.638 | 0.529 | 13.2 | 0.362 | 43 | 0.374 | 19.9 | 0.327 | 1.52 | 0.723 | > 100 | 0.499 | 31.5 | 0.422 | 1.94 | 0.318 | 25.2
19 | O=C1CSC(N2CCN(c3cccc(Cl)c3)CC2)=N1 | > 100 | > 100 | > 100 | > 100 | > 100 | > 100 | > 100 | > 100 | > 100 | > 100 | > 100 | > 100 | > 100 | > 100 | > 100 | > 100 | > 100 | > 100 | 84.9 | > 100
20 | Cc1c(N2C(=O)/C(=C\c3ccccc3O)N=C2c2ccccc2)c(=O)n(-c2ccccc2)n1C | 15.6 | 76.9 | > 100 | > 100 | > 100 | > 100 | 27.9 | 75.3 | 21 | > 100 | 64 | > 100 | > 100 | > 100 | > 100 | > 100 | 62.3 | > 100 | 15.7 | 40.3
21 | Cn1c(-c2nonc2N)nc2cnccc21 | 13.7 | > 25 | > 25 | > 25 | > 25 | > 25 | 14.9 | > 25 | > 25 | > 25 | > 25 | > 25 | > 25 | > 25 | > 25 | > 25 | > 25 | > 25 | > 12.8 | > 24
22 | COC(=O)c1c2c(c(C)[n+]([O-])c1C)C(=O)C=CC2=O | 1.95 | 4.2 | 1.64 | 3.35 | 1.64 | 3.13 | 2.84 | 8.64 | 1.99 | 4.77 | 1.66 | 3.67 | 1.76 | 3.23 | 1.96 | 3.6 | 1.14 | 2.41 | 1.72 | 3.12
23 | COc1cccc(-c2nn(-c3ccccc3)cc2-c2ccnc(NCCCNS(=O)(=O)c3cccc(F)c3)c2)c1 | 6.16 | > 100 | 2.41 | 9.39 | 3.92 | > 100 | 6.52 | > 100 | 3.38 | > 100 | 2.05 | 21.2 | > 100 | > 100 | 6.82 | > 100 | 1.86 | 3.77 | 4.57 | > 100
